Measurements from patent US20080293699A1, “Inhibitors of thapsigargin-induced cell death” (priority 2007, published 2008).

Columns and labels:
phospho-p38 MAPK = assay: Thapsigargin-induced p38 MAPK phosphorylation in CSM14.1 cells (immunoblotting and MSD assay); assay type: cell-based, rat
Excerpt: After confirming the pathway selectivity of compounds, additional downstream assays can be performed to map the specific signal transduction pathway inhibited by the compounds. In this regard, various antibody reagents are commercially available for assessing the status of the three major pathways known to be activated by ER stress: (1) PERK, (2) Ire1, and (3) ATF6 (Xu et al., J. Clinical Invest., 115:2656-2664, 2005). Immunoblotting experiments can be performed to assess the expression or phosphorylation (using phospho-specific antibodies) of marker proteins in these pathways. […] Cell lysates were prepared and analyzed by SDS-PAGE/immunoblotting using antibodies specific for phospho-c-Jun, phospho-eIF2α, phospho-p38 MAPK, and tubulin (a loading control). […] After two hrs, cell lysates were prepared, normalized for protein content, and either analyzed by SDS-PAGE/immunoblotting using anti-p38-MAPK pan-reactive antibody or phospho-specific antibody with ECL-based detection, followed by densitometry analysis of x-ray films, normalizing phosphor-p38 MAPK relative to total p38 MAPK, or analyzed using a meso-scale instrument from MSD and a procedure in which total p38 MAPK is captured on plates, and the relative amounts of phosphorylated protein were determined using phospho-specific antibody (MSD catalog #K15112D1). […]

[1] = system: mouse neural stem cell C17.2; assay: Thapsigargin-induced death of C17.2 cells (undifferentiated and differentiated), ATP content assay; assay type: cell-based
Procedure: In addition to CSM14.1 cells, when tested at 25 μM, Compound 5962123 protected by >50% against thapsigargin-induced death of several tumor cell lines (HeLa human cervical cancer, SW1 melanoma cell, PPC1, human prostate cancer), mouse neural stem cell C17.2 (both differentiated [neuronal phenotype] and non-differentiated [stem cell phenotype]) as determined by ATP content assay, and primary rat cortical neurons as determined by microscopy assay measuring the percentage of NeuN-immunopositive cells with either normal or apoptotic nuclear morphology (Hoechst dye staining).
For PC12, cells were stimulated with 20 ng/ml NGF for five days; for C17.2, cells were stimulated with serum reduction, and 1% N2 incubation for three days; for CSM14.1, cells were cultured at 39° C. for 5-7 days.

[2] = system: primary mouse neuronal cells; assay: Thapsigargin-induced death of primary mouse neuronal cells, immunostaining and microscopy; assay type: cell-based; settings: 25 μM, two hours before thapsigargin for 24 hours
Procedure: (§1) Primary cortical neuron cells were prepared from the […] of mice. After 14 days of maturation, the cells were preincubated with DMSO (0.2%) or 25 μM of compound 6239507 for two hours. The cells were then treated with thapsigargin (TG) for 24 hours. Cells were fixed with an aldehyde solution and subjected to immunostaining with NeuN and MAP2 antibody for staining the neuronal body and axon network. Hoechst dye was used to stain nuclei. To show the loss of the axon network by thapsigargin, a wide field was captured by fluorescent microscopy. Cells showing a condensed nucleus and shrunken neuritis were considered as dead to evaluate cell death.
as §1, with “Fluorescent microscopy was used to” for “To”, “thapsigargin.” for “thapsigargin, a wide field was captured by fluorescent microscopy.”

Structure (SMILES): CCN(CC)c1ccc(C2Nc3ccccc3NC3=C2C(=O)CC(c2ccccc2)C3)cc1 (stereo not shown) [Compound 5962123, 6-(4-diethylaminophenyl)-9-phenyl-5,6,8,9,10,11-hexahydrobenzo[c][1,5]benzodiazepin-7-one]
- Thapsigargin-induced phosphorylation of p38MAPK (phospho-p38 MAPK; CSM14.1, immunoblotting and MSD assay, 10 μM, 25 μM hits): inhibits
- IC50 (phospho-p38 MAPK; quantitative ELISA-methods, thapsigargin-treated CSM14.1, estimated, read-out: IC50 for p38MAPK phosphorylation): < 5 µM
- Activity in differentiated C17.2 cells treated with thapsigargin ([1]; 25 μM, ATP content assay): confirmed
- Protection against thapsigargin-induced death, C17.2 ([1]; 25 μM, both differentiated and non-differentiated, ATP content assay): > 50%
- Cytoprotective activity, C17.2 diff (Result) ([1]; differentiated, thapsigargin 10 μM, ATP content, compound ≦25 μM): + (+indicates >50% rescue of cell viability relative to untreated cells not exposed to thapsigargin at compound concentration of ≦25 μM)
- Cytoprotective activity, C17.2 (Result) ([1]; undifferentiated, thapsigargin 10 μM, ATP content, compound ≦25 μM): + (+indicates >50% rescue of cell viability relative to untreated cells not exposed to thapsigargin at compound concentration of ≦25 μM)

Structure (SMILES): COc1ccc(C2CC(=O)C3=C(C2)Nc2ccccc2NC3c2cccc(Oc3ccccc3)c2)cc1OC (stereo not shown) [Compound 6239507]
- Inhibition of ER stress-induced cell death in primary mouse neuronal cells [2]: can inhibit
